Consider one compound from patent US20200055044A1, “METHODS AND SYSTEMS FOR MICRO PLATELET FUNCTION TESTING USING AN INTEGRATED MINIATURIZED PLATELET FUNCTION ANALYZER” (Atantares Corp., priority 2016, published 2020).

The subject of the test is platelets in fresh anticoagulated human blood. Put plainly: impedance-based micro platelet function test with microfabricated 3D electrodes in a microfluidic channel. In kind it is cell-based. The following applies: 100 μM ADP; human blood with Calcium Chloride and 10 μM PPACK; flow rate 25 μL/min; six frequencies 20 Hz to 2 MHz; logged for 2000 s; FIG. 16. From the text: Although not shown explicitly, electrodes of different heights (125 μm, 250 μm), diameters (100 μm, 250 μm, 500 μm), and gaps in-between electrodes (500 μm, 1000 μm) were fabricated using the same process. Pairs of 3D electrodes where each electrode comprises a number of electrically connected metal-coated cylindrical cores arranged in a grid were also fabricated. […] Wires soldered to the patterned metal pads on the substrates were used to connect the 3D electrodes to an Agilent E4980A LCR meter. FIG. 16 show a set 1600 of experimental data using electrodes fabricated according to the process discussed above. 1 mL of fresh anticoagulated human blood, obtained within 4 hrs of use, was mixed with 65 μL of 100 mg/mL Calcium Chloride and 10 μM of D-Phenylalanyl-prolyl-arginyl chloromethyl ketone (PPACK). […] The impedance of the electrodes was continuously monitored and logged at six different frequencies (20 Hz, 200 Hz, 1 kHz, 15 kHz, 200 kHz, 2 MHz) using a custom MATLAB program running on a computer interfaced to the LCR meter. […] The peak impedance values reached or the areas under the impedance-time curves or other measures from these curves may be analyzed and interpreted as indications of platelet activity in response to the modifying reagent added (e.g. ADP). […]

For the compound `Nc1ncnc2c1ncn2[C@@H]1O[C@H](COP(=O)(O)OP(=O)(O)O)[C@@H](O)[C@H]1O` [ADP, adenosine diphosphate], the “change in electrode impedance after addition of platelet activation reagent” value is given as “increase in electrode impedances at all frequencies”.
